Source: patent EP0219377A1, “Process for the preparation of spherical paracetamol agglomerates and products obtained thereby” (RHONE-POULENC SANTE, priority 1985, dated 1987)

Assays:
[1] = dissolution of suspensions of 1, 2 and 3 g in 200 cm3 of water, stirred at room temperature; format: physicochemical; settings: insoluble filtered, dried and weighed after at most 10 minutes
Text: Les résultats suivants sont obtenus :

[2] = flowability (coulabilité) test on the Hosokawa combined powder tester; format: physicochemical; settings: for Angle de spatule / Angle de talus / Densité (non tassée): combiné Hosokawa
Text: Les propriétés de coulabilité et de dissolution du produit ainsi obtenu sont comparées à celle de paracétamol cristallisé paracétamol broyé (refus à 425 µ < 0,5 %, refus à 250 µ < 5 %) paracétamol broyé super fin (refus à 50 µ < 10 %, refus à 80 µ < 1 %) a) coulabilité : les produits sont testés sur le combiné Hosokawa commercialisé par Hosokawa Europe Ltd, St John's Estate, Tylers Green High Wycombe, Buckinghamshire, England.

[3] = Concentration 5 g/l (1 g in 200 cm3 water)
[4] = Concentration 10 g/l (2 g in 200 cm3 water)
[5] = Concentration 15 g/l (3 g in 200 cm3 water)

With `CC(=O)Nc1ccc(O)cc1` [Aggloméré, paracétamol] the Pourcentage dissous [1, 3] was 100, the Pourcentage dissous [1, 4] was 100 and the Pourcentage dissous [1, 5] was over 98. The Angle de spatule [2] was 41°, the Angle de talus [2] was 37° and the “Densité (non tassée)” value [2] was 400 kg/m3. For the same compound, the coulabilité ([2]; result in words, compared with the crystallised and ground products) was “aussi bonne que le produit cristallisé”.

In the case of `CC(=O)Nc1ccc(O)cc1` [Cristallisé, paracétamol], the Pourcentage dissous [1, 3] is reported as over 95, the Pourcentage dissous [1, 4] is reported as 85 and the Pourcentage dissous [1, 5] is reported as 83. For the same compound, the Angle de spatule [2] was 39°, the Angle de talus [2] was 39° and the “Densité (non tassée)” value [2] was 700 kg/m3.

Compound `CC(=O)Nc1ccc(O)cc1` [Broyé super fin, paracétamol] has a Pourcentage dissous [1, 3] of 100, a Pourcentage dissous [1, 4] of 100 and a Pourcentage dissous [1, 5] of over 98. The Angle de spatule [2] was 76°, the Angle de talus [2] was 60° and the “Densité (non tassée)” value [2] was 150 kg/m3.

`CC(=O)Nc1ccc(O)cc1` [Broyé, paracétamol] gave a Pourcentage dissous [1, 3] of 100, a Pourcentage dissous [1, 4] of 100 and a Pourcentage dissous [1, 5] of over 98. The Angle de spatule [2] was 74°, the Angle de talus [2] was 56° and the “Densité (non tassée)” value [2] was 280 kg/m3.
